From PubChem BioAssay (NCI)
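Method: 48-hour compound exposure of cells in 96-well plates, five concentrations, linear interpolation of endpoints. Here, GI50 denotes the concentration required for 50% inhibition of growth. The concentration for full growth arrest is given as TGI.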

How the values were obtained:
Assay in all cases: NCI tumour cell line growth inhibition, 48 h
[1] = tested on: DMS 273 small cell lung
[2] = tested on: EKVX NSCLC
[3] = tested on: KM20L2 colon
[4] = tested on: M19-MEL melanoma
[5] = tested on: RXF 393 renal
[6] = tested on: SN12C renal
[7] = tested on: TK-10 renal
[8] = tested on: XF 498 CNS
[9] = tested on: DU-145 prostate
[10] = tested on: NCI/ADR-RES ovarian
[11] = tested on: 786-0 renal
[12] = tested on: BT-549 breast
[13] = tested on: MDA-N
[14] = tested on: P388 leukemia
[15] = tested on: P388/ADR leukemia
[16] = tested on: SN12K1 renal

Structure (SMILES)	TGI [1] [µM]	TGI [2] [µM]	TGI [3] [µM]	TGI [4] [µM]	TGI [5] [µM]	TGI [6] [µM]	TGI [7] [µM]	TGI [8] [µM]	TGI [9] [µM]	TGI [10] [µM]	TGI [11] [µM]	TGI [12] [µM]	TGI [13] [µM]	TGI [14] [µM]	TGI [15] [µM]	TGI [16] [µM]	GI50 [9] [µM]	GI50 [2] [µM]	GI50 [5] [µM]	GI50 [7] [µM]
CC1CC(c2ccc([N+](=O)[O-])cc2)=Nc2ccccc2S1=O (configuration not stated)	42.7	60.9	29.9	30.8	23.6	> 100	91.6	95.1												
Cc1ccc(C(=O)N/N=C(\N=Nc2ccccc2)c2ccc(N(CCC#N)CCC#N)cc2C)cc1		> 100			> 100		> 100		> 100	> 100										
O=c1[nH]c(=S)c2[nH]c(=O)n(-c3ccccc3)c2[nH]1		> 100			> 100	> 100	> 100		> 100	> 100	> 100	> 100	> 100							
COc1ccc2oc3c(ccc[n+]3C)c(=O)c2c1		> 100			> 100	> 100	> 100		> 100	> 100			> 100							
CC(=O)O[C@@H]1CN(S(=O)(=O)c2ccc(C)cc2)C[C@@H]1C1CCCCC1		58.6					41.4		> 100	53.3			54.7							
O=C1NC(=O)C2(CCc3ccc(N(CCCl)CCCl)cc32)N1 (configuration not stated)	16	16.4	42.8	39.5	22.5	> 100				40.6				15.5	36.7	37.1				
C/C=C1/C(=O)O[C@]23C=C[C@@H]4C(C(=O)OC)=CO[C@H](O[C@@H]12)[C@@H]43	39.9	3.64	15.4	4.38	1.29	4.88		3.37		6.37				1.83	2.41	3.22				
COc1cc2c(cc1O)N=C[C@@H]1CCC(O)N1C2=O (mixture of isomers)	19.6	5.99	24.9	4.81	0.638	19.1		1.2		3.42				9.2	5.15	25				
Nc1ccc2c(c1)S(=O)(=O)c1cc(N)ccc1-2		> 100			> 100	> 100	> 100		> 100	> 100	> 100	> 100	> 100							
O=c1ccc2nc3ccc(O)cc3oc-2c1		> 100			> 100	> 100	> 100		57.5	> 100	> 79.6	44	3.43							
CC(CNc1nc(Nc2ccc(Cl)c(Cl)c2)nc(C(Cl)(Cl)Cl)n1)N(C)C (configuration not stated)		4.62			2.88		3.27		4.09								1.99	1.99	1.52	1.77
